The star is where a group is joined. aminoluciferin = O=C(O)[C@H]1CSC(c2nc3ccc(N*)cc3s2)=N1
Key:
[1] = system: luciferase; assay: imaging of mice expressing the luc gene after substrate injection; assay type: in vivo, mouse; conditions: substrate injected, no protease injected
Method: In these experiments, injection of the mice with luciferin activates the luciferin-luciferase reaction and the subsequent emission of light, i.e., photons, which can be monitored outside the body using low light imaging systems, based on charge coupled device (“CCD”) cameras.
In FIG. 4A, the pictured mouse was injected with luciferin. […] In FIG. 4B, the mice were injected with the modified substrate N-Ac-Phe-aminoluciferin. […] The mouse pictured on the right was subjected to further injections with chymotrypsin at selected sites. Chymotrypsin is a proteolytic enzyme that can use N-Ac-Phe-aminoluciferin as a substrate.

[2] = system: chymotrypsin; assay: protease assay of FIG. 3, performed in culture; assay type: cell-based
Excerpt: The procedure described in FIG. 2 may be used in in vivo protease assays. Naturally occurring proteases can be used to convert luciferylpeptides to aminoluciferin. These naturally occurring proteases may be associated with a physical state of the body, an organ, tissue, or cells, or may be associated with the location of particular conditions. There, the luciferylpeptide, N-Ac-Phe-aminoluciferin, was synthesized from a solution of 6-amino-2-cyanobenzothiazole, pursuant to the procedure set forth in Monsees et al., supra. […] The aminoluciferin was then available for reaction with luciferase, and in the presence of ATP and O2 in the cells, produced visible light and oxyaminoluciferin. The procedure shown in FIG. 3 was initially performed in culture and subsequently in a transgenic mouse model. This procedure can be modified by adding different compounds to the aminoluciferin, and cleaving the conjugate at the appropriate time and place with specific enzymes.

[3] = system: chymotrypsin; assay: in vivo protease assay: luc mice given substrate plus chymotrypsin injections at selected sites; parameters: species or system mouse; conditions: mice expressing luc gene, further injections with chymotrypsin at selected sites
Method: In FIG. 4A, the pictured mouse was injected with luciferin. […] In FIG. 4B, the mice were injected with the modified substrate N-Ac-Phe-aminoluciferin. […] The dramatic reduction in signal intensity (note scales on images) on the second mouse is due to the lack of freely available substrate for the luciferase reaction. The mouse pictured on the right was subjected to further injections with chymotrypsin at selected sites. Chymotrypsin is a proteolytic enzyme that can use N-Ac-Phe-aminoluciferin as a substrate. […] The freely available aminoluciferin was then catalyzed by luciferase to generate the photons seen in the photograph. […] It can thus be observed that the use of aminoluciferin substrates results in increased versatility for in vivo assays such that protease activity can be assessed in live cells in vivo or in a test tube.
In a one embodiment of the invention, peptide sequences that are conjugated to aminoluciferin are cleaved by the protease chymotrypsin or by chymotrypsin-like proteases, such as, for example, PSA, a clinical marker for prostate cancer.

[4] = system: LNCaP, a prostate cancer cell line that produces PSA; assay: in vitro model: PSA-specific substrate on PSA secreting cells (FIG. 7); assay type: cell-based; conditions: serum-free media
Method: The LNCaP cells were incubated for 5 and 19 hours, which represented two time intervals during which the cells were to synthesize PSA, and both cell lines were transfected with SKLQ-aLuc to produce luciferase. […] (“DHT”) was used to investigate its influence on cell growth and PSA production. The cell culture media was serum-free to prevent PSA from forming complexes with various serine-protease inhibitors that are present in the serum.

[5] = target: luciferase (Photinus pyralis, UniProt P08659); conditions: in the presence of ATP, Mg2+/O2 and luciferase; cited from earlier work
Sequence of luciferase (Photinus pyralis, UniProt P08659) (P08659 whole entry): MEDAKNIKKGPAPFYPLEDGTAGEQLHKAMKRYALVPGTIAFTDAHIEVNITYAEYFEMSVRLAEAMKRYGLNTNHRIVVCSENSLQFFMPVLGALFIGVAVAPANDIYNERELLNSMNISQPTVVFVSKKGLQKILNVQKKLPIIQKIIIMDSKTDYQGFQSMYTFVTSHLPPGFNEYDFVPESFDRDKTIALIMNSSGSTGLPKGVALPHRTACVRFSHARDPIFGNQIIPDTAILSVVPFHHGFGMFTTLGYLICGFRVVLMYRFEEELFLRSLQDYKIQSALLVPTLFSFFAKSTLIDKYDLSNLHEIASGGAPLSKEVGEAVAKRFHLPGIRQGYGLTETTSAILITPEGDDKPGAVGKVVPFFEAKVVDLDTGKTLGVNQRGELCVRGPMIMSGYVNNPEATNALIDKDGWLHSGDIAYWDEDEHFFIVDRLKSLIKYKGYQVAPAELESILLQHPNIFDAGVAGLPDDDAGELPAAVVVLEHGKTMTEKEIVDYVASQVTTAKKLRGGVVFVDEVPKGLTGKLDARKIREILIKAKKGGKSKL

[6] = system: LNCaP tumor (PSA); assay: in vivo model: SCID mice bearing subcutaneous LNCaP tumor (FIG. 8); parameters: species or system mouse; conditions: FIG. 8B
Method: The peptides were then tested in severe compromised immune deficiency (SCID) mice that bore an LNCaP tumor implanted at a subcutaneous site. […] The mice were injected with luciferin to localize the tumors and confirm their presence. […] The aminoluciferin released from the cleavage of the peptide by PSA is transported across the LNCaP cell membrane and reacts with luciferase to emit light. Thus, the aminoluciferyl peptide is activated by PSA and consequently can be used to target PSA producing cells in animal models.

CC(=O)N[C@@H](Cc1ccccc1)C(=O)Nc1ccc2nc(C3=N[C@@H](C(=O)O)CS3)sc2c1 [N-Ac-Phe-aminoluciferin]
photon emission from the mouse [1]: only isolated regions of the mouse produced low level photon emission
luminescence of the intact luciferylpeptide ([2]; before addition of chymotrypsin): prevented from luminescing
cleavage of the luciferylpeptide by the protease ([2]; upon addition of chymotrypsin): aminoluciferin was cleaved from the luciferylpeptide
photon emission from the mouse after protease injection [3]: only the sites where the protease enzyme was injected produced detectable signals

C[C@]12CCC(=O)C[C@@H]1CC[C@@H]1[C@@H]2CC[C@]2(C)[C@@H](O)CC[C@@H]12 [DHT, Dihydroxytestosterone]
influence on PSA levels ([4]; LNCaP/PC3M): does not appear to influence
influence on cell growth ([4]; LNCaP/PC3M): does not appear to influence

Nc1ccc2nc(C3=N[C@@H](C(=O)O)CS3)sc2c1 [aminoluciferin, D-(−)-2-(6′-amino-2′-benzothiazolyl)-Δ^2-thiazoline-4-carboxylic Acid]
light generation compared with luciferin [5]: generates light to the same extent as does luciferin

Ac-Ser-Lys-Leu-Gln-aLuc (Ac-SKLQ-aminoluciferin; SMILES CC(=O)N[C@@H](CO)C(=O)N[C@@H](CCCCN)C(=O)N[C@@H](CC(C)C)C(=O)N[C@@H](CCC(N)=O)C(=O)Nc1ccc2nc(C3=N[C@@H](C(=O)O)CS3)sc2c1) [SKLQ-aLuc]
light emission from LNCaP tumors [6]: light emission from these tumors
amount of aminoluciferyl peptide detected in the cells versus PSA secreted ([4]; LNCaP incubated 5 and 19 hours, PC3M as non-PSA line): directly proportional to the amount of PSA secreted into the media by the LNCaP cells

O=C(O)[C@H]1CSC(c2nc3ccc(O)cc3s2)=N1 [luciferin, (D)-(−)-2-(6′-Hydroxy-2′-benzothiazolyl)-2-thiazoline-4-carboxylic acid]
photon emission from the mouse [1]: most of the tissues of this mouse emitted visible light

From patent publication US20060073529A1, “Luciferyl peptide substrate” (priority 2004, published 2006)
